Measurements published in PubChem BioAssay AID248 (DTP/NCI, 2004).
Values joined by “and” are separate entries in the source; they are usually repeats but may differ in a detail not shown here. Identical values can stand only once. Inconclusive results and toxic doses are left out. Cut-off read from the data, not from the text of the source: active = T/C of 150% or more; inactive = T/C below 125%.

Test system: L1210 leukemia ip in BDF1 mice, survival T/C
Experiment: NCI In Vivo Anticancer Drug Screen. Data for tumor model L1210 Leukemia (intraperitoneal) in B6D2F1 (BDF1) mice
Conditions: endpoint: mean survival time, higher = longer survival
Summary of the method: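 Survival endpoint. Drug-treated group vs vehicle group, expressed as T divided by C. Tumor passaged by transplantation.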

[1] = dose: 100.0 mg/kg/injection, schedule: Q01DX009 (ip), vehicle: Klucel (hydroxypropylcellulose) (HPC)
[2] = dose: 200.0 mg/kg/injection, schedule: Q01DX009 (ip), vehicle: Klucel (hydroxypropylcellulose) (HPC)
[3] = dose: 25.0 mg/kg/injection, schedule: Q04DX003 (ip), vehicle: saline with Tween-80
[4] = dose: 100.0 mg/kg/injection, schedule: Q04DX003 (ip), vehicle: saline with Tween-80
[5] = dose: 100.0 mg/kg/injection, schedule: Q04DX003 (ip), vehicle: saline
[6] = dose: 200.0 mg/kg/injection, schedule: Q04DX003 (ip), vehicle: saline
[7] = dose: 400.0 mg/kg/injection, schedule: Q04DX003 (ip), vehicle: saline
[8] = dose: 100.0 mg/kg/injection, schedule: Q01DX001 (ip), vehicle: saline
[9] = dose: 200.0 mg/kg/injection, schedule: Q01DX001 (ip), vehicle: saline
[10] = dose: 400.0 mg/kg/injection, schedule: Q01DX001 (ip), vehicle: saline

Measured: T/C

CS(=O)(=O)Nc1ccccc1
inactive: dose: 75.0 mg/kg/injection, schedule: Q04DX003 (ip), vehicle: Klucel (hydroxypropylcellulose) (HPC) 98 % of control | dose: 100.0 mg/kg/injection, schedule: Q01DX001 (ip), vehicle: Klucel (hydroxypropylcellulose) (HPC) 96 % of control | dose: 150.0 mg/kg/injection, schedule: Q04DX003 (ip), vehicle: Klucel (hydroxypropylcellulose) (HPC) 93 % of control | dose: 200.0 mg/kg/injection, schedule: Q01DX001 (ip), vehicle: Klucel (hydroxypropylcellulose) (HPC) 101 % of control | dose: 300.0 mg/kg/injection, schedule: Q04DX003 (ip), vehicle: Klucel (hydroxypropylcellulose) (HPC) 93 % of control | dose: 400.0 mg/kg/injection, schedule: Q01DX001 (ip), vehicle: Klucel (hydroxypropylcellulose) (HPC) 96 % of control

COc1cc2c(cc1O)CCN(C)C2Cc1ccc(OC)c(OC)c1 (stereo unspecified)
inactive: dose: 75.0 mg/kg/injection, schedule: Q01DX001 (ip), vehicle: carboxymethylcellulose (CMC) 95 % of control | dose: 150.0 mg/kg/injection, schedule: Q01DX001 (ip), vehicle: carboxymethylcellulose (CMC) 94 % of control

CC1O/C(=N\O)C(C)O1 (stereo unspecified)
inactive: dose: 100.0 mg/kg/injection, schedule: Q01DX009 (ip), vehicle: carboxymethylcellulose (CMC) 95 % of control and 97 % of control | dose: 100.0 mg/kg/injection, schedule: Q04DX002 (ip), vehicle: carboxymethylcellulose (CMC) 106 % of control and 115 % of control | dose: 100.0 mg/kg/injection, schedule: Q04DX003 (ip), vehicle: carboxymethylcellulose (CMC) 93 % of control | dose: 200.0 mg/kg/injection, schedule: Q01DX009 (ip), vehicle: carboxymethylcellulose (CMC) 93 % of control and 95 % of control | dose: 200.0 mg/kg/injection, schedule: Q04DX002 (ip), vehicle: carboxymethylcellulose (CMC) 97 % of control and 102 % of control | dose: 200.0 mg/kg/injection, schedule: Q04DX003 (ip), vehicle: carboxymethylcellulose (CMC) 101 % of control | dose: 400.0 mg/kg/injection, schedule: Q01DX009 (ip), vehicle: carboxymethylcellulose (CMC) 93 % of control and 105 % of control | dose: 400.0 mg/kg/injection, schedule: Q04DX002 (ip), vehicle: carboxymethylcellulose (CMC) 95 % of control | dose: 400.0 mg/kg/injection, schedule: Q04DX003 (ip), vehicle: carboxymethylcellulose (CMC) 98 % of control

C[CH2][Ge]1([CH2]C)[CH2]C(C)=C(C)[CH2]1
inactive: dose: 100.0 mg/kg/injection, schedule: Q04DX002 (ip), vehicle: saline with Tween-80 95 % of control | dose: 200.0 mg/kg/injection, schedule: Q04DX002 (ip), vehicle: saline with Tween-80 95 % of control

CC(/C=N/NC(=O)c1cnccn1)=N/NC(=O)c1cnccn1
inactive: dose: 50.0 mg/kg/injection, schedule: Q01DX001 (ip), vehicle: water 108 % of control | dose: 100.0 mg/kg/injection, schedule: Q01DX001 (ip), vehicle: water 108 % of control | dose: 200.0 mg/kg/injection, schedule: Q01DX001 (ip), vehicle: water 103 % of control | dose: 400.0 mg/kg/injection, schedule: Q01DX001 (ip), vehicle: water 110 % of control

CC(=O)Nc1ccc(C=O)cc1[N+](=O)[O-]
inactive: [1] 101 % of control | dose: 100.0 mg/kg/injection, schedule: Q04DX003 (ip), vehicle: Klucel (hydroxypropylcellulose) (HPC) 100 % of control | [2] 104 % of control | dose: 200.0 mg/kg/injection, schedule: Q04DX003 (ip), vehicle: Klucel (hydroxypropylcellulose) (HPC) 100 % of control | dose: 400.0 mg/kg/injection, schedule: Q01DX009 (ip), vehicle: Klucel (hydroxypropylcellulose) (HPC) 94 % of control | dose: 400.0 mg/kg/injection, schedule: Q04DX003 (ip), vehicle: Klucel (hydroxypropylcellulose) (HPC) 100 % of control

CN(CCO)C(=O)/C=C/c1ccc(O)cc1
inactive: dose: 50.0 mg/kg/injection, schedule: Q01DX009 (ip), vehicle: saline 95 % of control | dose: 100.0 mg/kg/injection, schedule: Q01DX009 (ip), vehicle: saline 95 % of control | dose: 200.0 mg/kg/injection, schedule: Q01DX009 (ip), vehicle: saline 101 % of control

ClCCN(CCCCCCN(CCCl)Cc1ccccc1)Cc1ccccc1
inactive: dose: 2.5 mg/kg/injection, schedule: Q04DX002 (ip), vehicle: Klucel (hydroxypropylcellulose) (HPC) 104 % of control | dose: 5.0 mg/kg/injection, schedule: Q04DX002 (ip), vehicle: Klucel (hydroxypropylcellulose) (HPC) 100 % of control

c1ccc(-c2nncnn2)cc1
inactive: [3] 97 % of control | dose: 50.0 mg/kg/injection, schedule: Q04DX003 (ip), vehicle: saline with Tween-80 92 % of control | [4] 101 % of control

O=c1[nH]c(=O)c2nccnc2[nH]1
inactive: dose: 25.0 mg/kg/injection, schedule: Q01DX009 (ip), vehicle: water 109 % of control | dose: 50.0 mg/kg/injection, schedule: Q01DX009 (ip), vehicle: water 111 % of control | dose: 100.0 mg/kg/injection, schedule: Q01DX009 (ip), vehicle: water 104 % of control | dose: 200.0 mg/kg/injection, schedule: Q01DX009 (ip), vehicle: water 101 % of control

COc1ccc(/C=C2\N=C(c3ccc(Cl)cc3)OC2=O)cc1Br
inactive: dose: 100.0 mg/kg/injection, schedule: Q04DX002 (ip), vehicle: saline 101 % of control | dose: 200.0 mg/kg/injection, schedule: Q04DX002 (ip), vehicle: saline 93 % of control | dose: 400.0 mg/kg/injection, schedule: Q04DX002 (ip), vehicle: saline 108 % of control

O=C(O)CCc1c2ccc(=O)c(O)c-2oc2c(O)c(O)ccc12
inactive: [5] 106 % of control | [6] 105 % of control | [7] 100 % of control

O=C1CCCCC(=O)CCCC1
inactive: [8] 102 % of control | [9] 100 % of control | [10] 105 % of control

OCCC(c1ccccc1)(c1ccccc1)c1ccccc1
inactive: dose: 6.25 mg/kg/injection, schedule: Q04DX003 (ip), vehicle: saline with Tween-80 98 % of control | dose: 12.5 mg/kg/injection, schedule: Q04DX003 (ip), vehicle: saline with Tween-80 100 % of control | [3] 89 % of control and 91 % of control | [4] 90 % of control

Cc1ccc(S(=O)(=O)NNC(=O)c2ccc[nH]2)cc1
inactive: dose: 75.0 mg/kg/injection, schedule: Q01DX001 (ip), vehicle: saline 101 % of control | dose: 150.0 mg/kg/injection, schedule: Q01DX001 (ip), vehicle: saline 101 % of control | dose: 300.0 mg/kg/injection, schedule: Q01DX001 (ip), vehicle: saline 96 % of control

COc1ccc2c(c1)CC[C@@H]1[C@@H]2CC[C@@]2(C)[C@H]1CC[C@@]2(O)C(F)=C(F)F
inactive: dose: 38.0 mg/kg/injection, schedule: Q01DX015 (sc), vehicle: steriod suspending solution 96 % of control | dose: 50.0 mg/kg/injection, schedule: Q01DX009 (ip), vehicle: Klucel (hydroxypropylcellulose) (HPC) 116 % of control | dose: 75.0 mg/kg/injection, schedule: Q01DX015 (sc), vehicle: steriod suspending solution 88 % of control | dose: 100.0 mg/kg/injection, schedule: Q01DX001 (sc), vehicle: steriod suspending solution 92 % of control | [1] 107 % of control | dose: 150.0 mg/kg/injection, schedule: Q01DX015 (sc), vehicle: steriod suspending solution 94 % of control | dose: 200.0 mg/kg/injection, schedule: Q01DX001 (sc), vehicle: steriod suspending solution 100 % of control | [2] 100 % of control | dose: 300.0 mg/kg/injection, schedule: Q01DX009 (ip), vehicle: Klucel (hydroxypropylcellulose) (HPC) 104 % of control | dose: 300.0 mg/kg/injection, schedule: Q01DX015 (sc), vehicle: steriod suspending solution 94 % of control | dose: 400.0 mg/kg/injection, schedule: Q01DX001 (sc), vehicle: steriod suspending solution 97 % of control | dose: 600.0 mg/kg/injection, schedule: Q01DX015 (sc), vehicle: steriod suspending solution 94 % of control

CS(=O)(=O)N(c1ccccc1)c1ccccc1[N+](=O)[O-]
inactive: dose: 100.0 mg/kg/injection, schedule: Q01DX001 (ip), vehicle: other 117 % of control | dose: 200.0 mg/kg/injection, schedule: Q01DX001 (ip), vehicle: other 96 % of control | dose: 400.0 mg/kg/injection, schedule: Q01DX001 (ip), vehicle: other 111 % of control

CC1=C(c2ccccc2)OS(=O)(=O)NC1=O
inactive: [5] 100 % of control | [6] 97 % of control | [7] 101 % of control

N#CCC[N+]1([O-])CCCC1C(=O)O (stereo unspecified)
inactive: [8] 103 % of control | [9] 101 % of control | [10] 103 % of control

CCCCCCCCC(CCCCCCCC)CCc1ccccc1
inactive: dose: 100.0 mg/kg/injection, schedule: Q01DX001 (ip), vehicle: saline + alcohol 101 % of control | dose: 200.0 mg/kg/injection, schedule: Q01DX001 (ip), vehicle: saline + alcohol 100 % of control | dose: 400.0 mg/kg/injection, schedule: Q01DX001 (ip), vehicle: saline + alcohol 97 % of control
